Row | melting point | Structure (SMILES)
1 | 260 to 261 °C | O=C(O)COc1ccc(-c2c(Cl)c(CN3C(=O)CCC3=O)nc3sc4c(c23)CCS(=O)(=O)C4)cc1
2 | 222 to 224 °C | COc1cc(C(N)=O)c([N+](=O)[O-])cc1OCc1ccccc1
3 | 157 to 158 °C | Cc1c(F)c(F)c(C(N)=O)c(F)c1F
4 | 213 to 214 °C | O=C1N(c2c(Cl)cccc2Cl)Cc2cnc(Nc3cccc4ccccc34)nc2N1c1ccccc1
5 | 131 to 132 °C | O=C1Nc2cccnc2N(CCCCN2CCCCC2)c2ccccc21
6 | 153 to 155 °C | Cc1ncn(-c2ccc(NC(=O)OCc3ccccc3)cc2F)n1
7 | 119 to 120 °C | COc1cccc(-c2oc3ccccc3c(=O)c2OCCCCCCN2CCC(O)CC2)c1
8 | 186 to 188 °C | O=C(O)CC1CCN(Cc2ccccc2)C1c1c(Cl)cccc1Cl (configuration not stated)
9 | 206 to 207 °C | O=C(O)c1nc2ccc(O)cc2[nH]1
10 | 99 to 101 °C | c1ccc2nc(COc3cccc4ccccc34)ccc2c1
11 | 245 to 247 °C | COc1ccc(-c2c3c(cc4ccc5c(c24)OCO5)C(=O)NCC3)cc1
12 | 208 to 209 °C | O=C(NCc1ccc(F)c(F)c1)c1cc(-n2cnn(Cc3ccc(F)cc3)c2=O)n[nH]1
13 | 108 to 110 °C | CCCC(=NOCC)C1=C(O)CC2(CSCCSC2)OC1=O
14 | 169 to 171 °C | NC(=O)CN1CCN(c2cccccc2=O)CC1
15 | 139 to 143 °C | COc1cc2ncc(C#N)c(Nc3ccc(F)c(Cl)c3)c2cc1NC(=O)CC(CN1CCC(O)C1)N1CCC(O)C1 (configuration not stated)
16 | 85 to 86 °C | Cc1oc(-c2ccccc2)nc1COc1ccc(CCn2cc(CCC(=O)O)c(-c3ccccc3)n2)cc1
17 | 169 to 171 °C | CCCCCC(=O)c1c[nH]c2c(OC)cccc2c1=O
18 | 97 °C | COc1cc2c(cc1Nc1ncc(Cl)c(N[C@@H]3CCCC[C@H]3NS(C)(=O)=O)n1)NC(=O)CN(CC1CC1)C2
19 | 245 °C | COc1cc2c(cc1OC)[C@@H]1CN(C)CC[C@@H]1N=C2c1ccc(NC(=O)C(C)(C)C)cc1 (relative stereo)
20 | 170 to 177 °C | COc1ccccc1N1CCN(CCCNC(=O)c2csc3c(=O)cc(C(F)(F)F)oc23)CC1
21 | 150 °C | O=C(CCc1nc(-c2ccccn2)no1)NC1CCN(Cc2ccc(F)c(Cl)c2)CC1
22 | 110 to 113 °C | CC(C(=O)O)c1ccc(-c2ccc(F)cc2F)cc1 (configuration not stated)

Row | melting point | Structure (SMILES)
23 | 148 to 151 °C | CCOC(=O)c1c(C)[nH]c(Sc2cc(Cl)cc(Cl)c2)c1C(C)C
24 | 196 to 198 °C | COC(=O)c1cc(-c2ccc(OCc3ccccc3)cc2)n(-c2ccc(S(N)(=O)=O)cc2)n1
25 | 142 °C | CC(C)(C)c1cc(C=O)ccc1O
26 | 244 to 246 °C | Cc1cc(=O)c(-c2ccc(Oc3cccc(OC(F)(F)F)c3)cc2)c(C)[nH]1
27 | 119 to 121 °C | O=C(Nc1cc2ncc(CN3CCCC3)cc2cc1F)c1ccc(Br)cc1
28 | 153 °C | CCCc1nc(Br)c(C(C)(O)C(=O)O)n1Cc1ccc(-c2ccccc2S(=O)(=O)NC(=O)NCc2ccccc2)cc1 (configuration not stated)
29 | 152 °C | CCOC(=O)c1cc(OCc2ccccc2)c2nc(C)n(C)c2c1
30 | 193 to 194 °C | COC(=O)c1sc(-c2ccc(OCc3ccc([N+](=O)[O-])cc3)c(OC)c2)cc1NC(C)=O
31 | 164 to 166 °C | O=C(/C=C/C=C(c1ccc(C(F)(F)F)cc1)c1ccc(C(F)(F)F)cc1)Nc1cccc2cnccc12
32 | 155 to 157 °C | O=C(Nc1ccc(-n2nc(C(F)(F)F)cc2C(F)(F)F)cc1)c1cncc(Br)c1
33 | 133 to 136 °C | CNc1nc(-c2ccccc2)c(CCOC)c2ncnn12
34 | 182 to 184 °C | COc1ccc(NN=C(Sc2ccc(C#N)cc2)C(C)=O)cc1
35 | 156 to 158 °C | O=C1CCCC(CNC(=O)c2cc(O)ccc2OCC(F)(F)F)N1 (configuration not stated)
36 | 108 to 111 °C | CC(C)(C#N)c1cc(-n2cncc2C=O)cc(C(C)(C)C#N)c1
37 | 94 to 95 °C | Cc1ccc(C(=O)COc2cc(C)cc(C)c2C)nc1
38 | 213 to 214 °C | Cn1ncc(/C=C/C(=O)Nc2ccc(Cn3ccnc3)cc2)c1-c1ccc(F)cc1
39 | 205 to 206 °C | CCc1nc2cc(C)c(Cl)nc2n1-c1ccc(CCNC(=O)NS(=O)(=O)c2ccc(C)cc2)cc1
40 | 163 to 164 °C | COc1ccccc1C=C(C=O)C(C=O)=Cc1ccccc1OC
41 | 160 to 161 °C | CC(=O)Nc1nc(CCc2ccc(CC#N)cc2)cs1
42 | 193 to 195 °C | CCS(=O)(=O)Nc1cc(-n2nc3n(c2=O)CCCS3)c(F)cc1C#N
43 | 151 to 153 °C | Cc1ncc(CN2CCc3ccc(OCc4ccccc4)cc3C2)c(N)n1
44 | 242 to 244 °C | CCN(CC)CCOc1ccc2cc3ccc(OCCN(CC)CC)c(CN4C(=O)c5ccccc5C4=O)c3nc2c1CN1C(=O)c2ccccc2C1=O

Row | melting point | Structure (SMILES)
45 | 162 to 164 °C | CCOC(=O)c1sc(N)nc1-c1ccccc1Cl
46 | 300 °C | O=C(O)C1Cc2cc3c(=O)c4c(F)cccc4oc3c(Cl)c2O1 (configuration not stated)
47 | 48 to 49 °C | CCOC(=O)c1nc(SC)nc(OC)c1OCc1ccccc1
48 | 152 to 155 °C | O=C(NCNC(=O)c1ccccc1C(=O)C1CCCCC1)OCc1ccccc1
49 | 148 to 150 °C | COc1ccc(C(=O)C23CC4CC(C2)CC(C(=O)c2ccc(OC)cc2)(C4)C3)cc1
50 | 113 to 115 °C | Cc1cc(C(C)c2ccccc2)c(O)c(-n2nc3ccc(Cl)cc3n2)c1 (configuration not stated)
51 | 119 to 121 °C | CC(C)c1cccc(C(C)C)c1NC(=O)CNC(c1ccccc1)c1ccccc1Cl (configuration not stated)
52 | 115 °C | COc1cc(NP(=O)(OC)OC)ccc1NC(=O)OCc1ccccc1
53 | 167 to 168 °C | CC1(C)C(=O)C(C)(C)c2cc3[nH]c(SCc4ccccn4)nc3cc21
54 | 230 to 231 °C | CCOc1ccc(S(=O)(=O)NCc2ccccn2)cc1-c1nc2cccnc2c(=O)[nH]1
55 | 217 to 220 °C | Cc1c(NC(=O)CC(C)(C)C)c(C)c2c(c1-c1ccc(N(C)C)nc1)OCC2c1ccc(C(C)C)cc1 (configuration not stated)
56 | 247 to 249 °C | Nc1ncnc2nsnc12
57 | 196 to 199 °C | COc1ccccc1N1CCN(CCCNC(=O)c2cccc3c(=O)c(O)c(-c4ccccc4)oc23)CC1
58 | 183 to 184 °C | CCCC1=C(C(=O)OCC)C(C(C)C)n2ncc(C(=O)OCC)c2N1Cc1ccc(-c2ccccc2-c2nnn[nH]2)cc1 (configuration not stated)
59 | 241 to 242 °C | O=C1c2ccccc2C(=O)N1C(O)C1OC(n2ccc(=O)[nH]c2=O)CC1O (configuration not stated)
60 | 297 to 298 °C | CCCCc1ncc(/C=C2\C(=O)NC(=O)N2Cc2ccccc2)n1Cc1ccc(C(=O)O)cc1
61 | 114 to 119 °C | CCCOC(=O)c1ccc2c(c1)S[C@@H](c1ccc(OC)cc1)[C@@H](OC(C)=O)C(=O)N2CCN(C)C (racemic)
62 | 144 to 146 °C | Cn1cc(C(=O)NCc2ccc(Cl)cc2)c(=O)c2cc(CN3CCOCC3)cc(C#CCN3CCC(O)C3)c21 (configuration not stated)
63 | > 270 °C | O=C(O)Cn1c(C(=O)O)cc(=O)c2c1C(=O)C(O)=C2
64 | 165 to 168 °C | COC(=O)c1ccc(Cl)cc1NC(=O)CSc1ccc(O)cc1
65 | 112 °C | CCCC(=O)OCC(=O)C1C(C)CC2C3=C(C(O)CC21C)C1(C)C=CC(=O)C=C1C(F)C3 (configuration not stated)

Row | Structure (SMILES) | melting point
66 | CCCCCCc1sc(C(N)=O)c2c1-c1nn(C)cc1CC2 | 194 to 195 °C
67 | NCC(CC(=O)O)CC1CC1 (configuration not stated) | 172 to 173 °C
